Square brackets hold non-standard residues; d marks the D form. Ends that are not written are not given here. Peptide text beside a SMILES is read from it. pS = N[C@@H](COP(=O)(O)O)C(=O)O
What was measured:
SNTG2 PDZ [1] = molecular target: T1, SNTG2 PDZ (Homo sapiens, UniProt Q9NY99); assay: Holdup assay; type: binding; conditions: composite holdup affinity; 0.00=below quantification threshold; read-out: COMP pKd (converted)
T1 sequence (Q9NY99 73-156 limits assumed): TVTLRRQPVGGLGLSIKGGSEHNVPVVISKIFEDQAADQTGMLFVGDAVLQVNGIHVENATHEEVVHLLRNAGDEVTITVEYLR

SNTG2 PDZ [2] = molecular target: T1, SNTG2 PDZ; assay: Competitive fluorescence polarization (FP) assay; type: binding; conditions: read-out: pKd FP (converted)
SYNJ2BP PDZ = molecular target: T2, SYNJ2BP PDZ (Homo sapiens, UniProt P57105); assay: Holdup assay; type: binding; conditions: composite holdup affinity; 0.00=below quantification threshold; read-out: COMP pKd (converted)
T2 sequence (P57105 13-100 limits assumed): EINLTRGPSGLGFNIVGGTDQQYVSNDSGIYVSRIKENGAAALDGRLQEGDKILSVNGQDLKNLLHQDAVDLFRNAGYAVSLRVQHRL

HaCat cell extract preys = assay: PDZ-AP-MS, biotinylated MBP-PDZ baits; type: binding, human
How it was run: (§1)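 Biotinylated His6-AviTag-MBP-PDZ baits, or MBP alone, saturated streptavidin resin and were then biotin-blocked. Each was incubated with 1 mg cell lysate for 2 h at 4 °C, washed, and eluted in 8 M urea. Eluates were digested with Lys-C/trypsin, run by nanoLC-MS/MS on an Orbitrap Elite (top20 CID) and searched against human SwissProt.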

HeLa cell extract preys = assay: PDZ-AP-MS, biotinylated MBP-PDZ baits; type: binding, human; conditions: PDZ-AP-MS fold change of the PBM-protein prey
How it was run: as §1

[3] = tested on: Jurkat cell extract preys; assay: PDZ-AP-MS, biotinylated MBP-PDZ baits; type: binding, human
How it was run: as §1

DLG1_1/2 = conditions: SPR; ref Kim et al 1998; cited from earlier work
Source text: Supplement 41467_2022_33018_MOESM4_ESM.xlsx, sheet "reference DMI interactome" | column: Affinity (mM); pKd, measured in literature

SNX27 PDZ = SNX27 PDZ (Homo sapiens, UniProt Q96L92); assay: Holdup assay; type: binding
DLG1_2 PDZ = DLG1_2 PDZ (Homo sapiens, UniProt Q12959); assay: Holdup assay; type: binding; conditions: PBM motif of the named protein vs DLG1_2 PDZ; read-out: pKd values – domain-motif, DLG1_2 (converted)
DLG1_1 PDZ = DLG1_1 PDZ (Homo sapiens, UniProt Q12959); assay: Holdup assay; type: binding; conditions: PBM motif of the named protein vs DLG1_1 PDZ; read-out: pKd values – domain-motif, DLG1_1 (converted)
SCRIB_1 PDZ = SCRIB_1 PDZ (Homo sapiens, UniProt Q14160); assay: Holdup assay; type: binding; conditions: PBM motif of the named protein vs SCRIB_1 PDZ; read-out: pKd values – domain-motif, SCRIB_1 (converted)
Chain of SCRIB_1 PDZ (Q14160 728-815 limits assumed): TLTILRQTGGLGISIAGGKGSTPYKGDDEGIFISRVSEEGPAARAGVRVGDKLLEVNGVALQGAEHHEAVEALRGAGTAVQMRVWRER

TX1BP3 PDZ = molecular target: T3, TX1BP3 PDZ (Homo sapiens, UniProt O14907); assay: Holdup assay; type: binding; conditions: PBM motif of the named protein vs TX1BP3 PDZ; read-out: pKd values – domain-motif, TX1BP3 (converted)
T3 sequence (O14907 15-112 limits assumed): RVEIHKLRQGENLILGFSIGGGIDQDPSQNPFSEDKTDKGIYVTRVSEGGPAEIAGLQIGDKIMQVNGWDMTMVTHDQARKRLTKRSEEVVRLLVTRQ

SCRIB2 PDZ = molecular target: T4, SCRIB2 PDZ (Homo sapiens, UniProt Q14160); assay: Holdup assay; type: binding; conditions: PBM motif of the named protein vs SCRIB_2 PDZ; read-out: pKd values – domain-motif, SCRIB_2 (converted)
T4 sequence (Q14160 862-950 limits assumed): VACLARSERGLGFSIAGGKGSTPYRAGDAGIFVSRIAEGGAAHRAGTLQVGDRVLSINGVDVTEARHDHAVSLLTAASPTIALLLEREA

[4] = PDZ-AP-MS fold change of the PBM-protein prey, bait MBP-PDZ DLG1_1
[5] = PDZ-AP-MS fold change of the PBM-protein prey, bait MBP-PDZ DLG1_2
[6] = PDZ-AP-MS fold change of the PBM-protein prey, bait MBP-PDZ SCRIB_1
[7] = PDZ-AP-MS fold change of the PBM-protein prey, bait MBP-PDZ SCRIB_2
[8] = PDZ-AP-MS fold change of the PBM-protein prey, bait MBP-PDZ SNX27
[9] = PDZ-AP-MS fold change of the PBM-protein prey, bait MBP-PDZ TX1BP3
[10] = bait DLG1_1 PDZ, fold change of prey
[11] = bait DLG1_2 PDZ, fold change of prey
[12] = bait SCRIB_1 PDZ, fold change of prey
[13] = bait SCRIB_2 PDZ, fold change of prey
[14] = bait SNX27 PDZ, fold change of prey
[15] = bait TX1BP3 PDZ, fold change of prey

Molecule: CC[C@H](C)[C@H](NC(=O)[C@H](CCC(N)=O)NC(=O)[C@@H](NC(=O)[C@H](Cc1c[nH]cn1)NC(=O)[C@H](CCC(N)=O)NC(=O)[C@H](CC(=O)O)NC(=O)[C@H](CCC(=O)O)NC(=O)[C@H](CC(=O)O)NC(=O)CCC(=O)NCCCOCCOCCOCCCNC(=O)CCCC[C@@H]1SC[C@@H]2NC(=O)N[C@@H]21)[C@@H](C)O)C(=O)N[C@H](C(=O)N[C@@H](CCCCNC(C)=O)C(=O)N[C@H](C(=O)O)C(C)C)[C@@H](C)O [PTEN_Ac]
- Kd (SNTG2 PDZ [1]): 166 µM
- Kd (SNTG2 PDZ [2]): 377 µM

Molecule: CC(C)C[C@H](NC(=O)[C@@H](NC(=O)[C@@H](NC(=O)[C@H](COP(=O)(O)O)NC(=O)[C@@H]1CCCN1C(=O)[C@H](CC(C)C)NC(=O)[C@H](CCCCN)NC(=O)[C@H](CCCNC(=N)N)NC(=O)[C@@H](NC(=O)[C@@H](N)CCCNC(=N)N)C(C)C)[C@@H](C)O)[C@@H](C)O)C(=O)O [p-3 phosphorylated RPS6KA1] (H-RVRKLP[pS]TTL-OH)
- Kd (SYNJ2BP PDZ): 33.1 µM

Molecule: RVRKLPSTTL [RPS6KA1]
- Kd (SYNJ2BP PDZ): 151 µM

Molecule: SSLQSLETSV-OH [ATP2B4]
- Fold changes, HaCat, DLG1_1 (HaCat cell extract preys; [4]): 6.858
- Fold changes, HaCat, DLG1_2 (HaCat cell extract preys; [5]): 9.323
- Fold changes, HaCat, SCRIB_1 (HaCat cell extract preys; [6]): 1.193
- Fold changes, HaCat, SCRIB_2 (HaCat cell extract preys; [7]): 2.996
- Fold changes, HaCat, SNX27 (HaCat cell extract preys; [8]): 25.0597
- Fold changes, HaCat, TX1BP3 (HaCat cell extract preys; [9]): 1.007
- Ratio DLG1_1/MBP (HaCat cell extract preys; [10]): 6.858
- Ratio DLG1_2/MBP (HaCat cell extract preys; [11]): 9.323
- Ratio SCRIB_1/MBP (HaCat cell extract preys; [12]): 1.193
- Ratio SCRIB_2/MBP (HaCat cell extract preys; [13]): 2.996
- Ratio SNX27/MBP (HaCat cell extract preys; [14]): 25.0597
- Ratio TX1BP3/MBP (HaCat cell extract preys; [15]): 1.007
- Fold changes, HeLa, DLG1_1 (HeLa cell extract preys; bait MBP-PDZ DLG1_1): 1.011
- Fold changes, HeLa, DLG1_2 (HeLa cell extract preys; bait MBP-PDZ DLG1_2): 4.653
- Fold changes, HeLa, SCRIB_1 (HeLa cell extract preys; bait MBP-PDZ SCRIB_1): 16.1327
- Fold changes, HeLa, SCRIB_2 (HeLa cell extract preys; bait MBP-PDZ SCRIB_2): 1.595
- Fold changes, HeLa, SNX27 (HeLa cell extract preys; bait MBP-PDZ SNX27): 14.9763
- Fold changes, HeLa, TX1BP3 (HeLa cell extract preys; bait MBP-PDZ TX1BP3): 0.7931
- Fold changes, Jurkat, DLG1_1 [3, 4]: 3.92
- Fold changes, Jurkat, DLG1_2 [3, 5]: 17.9481
- Fold changes, Jurkat, SCRIB_1 [3, 6]: 13.9686
- Fold changes, Jurkat, SCRIB_2 [3, 7]: 1.428
- Fold changes, Jurkat, SNX27 [3, 8]: 34.2386
- Fold changes, Jurkat, TX1BP3 [3, 9]: 1.643
- Ratio DLG1_1/MBP [3, 10]: 3.92
- Difference log2 ([3]; bait DLG1_2 PDZ vs MBP, enrichment of prey): 4.166
- Ratio DLG1_2/MBP [3, 11]: 17.9481
- Ratio SCRIB_1/MBP [3, 12]: 13.9686
- Ratio SCRIB_2/MBP [3, 13]: 1.428
- Ratio SNX27/MBP [3, 14]: 34.2386
- Ratio TX1BP3/MBP [3, 15]: 1.643
- pKd, measured in literature (DLG1_1/2): 8.785

Molecule: VLRLQSETSV [VANGL1]
- Kd (SNX27 PDZ): 2 µM
- Kd (DLG1_2 PDZ): 13.8 µM
- Kd (DLG1_1 PDZ): 35.5 µM
- Kd (SCRIB_1 PDZ): 2.95 µM
- Kd (TX1BP3 PDZ): 61.7 µM
- Kd (SCRIB2 PDZ): 19.1 µM
